Literature values as cited in patent US10934346B2, “Modified T cell comprising a polynucleotide encoding an inducible stimulating molecule comprising MyD88, CD40 and FKBP12” (priority 2014, dated 2021).

Tested on: CD40-dependent signaling cascades
Settings: mouse, in vivo; cited from earlier work

## CC[C@H](C(=O)N1CCCC[C@H]1C(=O)O[C@H](CCc1ccc(OC)c(OC)c1)c1cccc(OCC(=O)NCC(CNC(=O)COc2cccc([C@@H](CCc3ccc(OC)c(OC)c3)OC(=O)[C@@H]3CCCCN3C(=O)[C@@H](CC)c3cc(OC)c(OC)c(OC)c3)c2)CN(C)C)c1)c1cc(OC)c(OC)c(OC)c1 [AP20187]
  induction of signaling in DCs: led to the in vivo induction of CD40-dependent signaling cascades in murine DCs
